{"source": "patent US11985974B2", "about": "“Antimicrobial ferulic acid derivatives and uses thereof” (WISCONSIN ALUMNI RESEARCH FOUNDATION, priority 2014, dated 2024)", "key": {"[1]": {"tested_on": "S. cerevisiae (BY4741 his3Δ::KanMX)", "experiment": "Multivariate morphological analysis (CalMorph)", "format": "cell-based, Saccharomyces cerevisiae", "procedure": "Cells of budding yeast S. cerevisiae (BY4741 his3Δ::KanMX; hereafter, his3Δ) were cultured in 2 mL 1% Bacto yeast extract (BD Biosciences), 2% Bacto peptone (BD Biosciences), and 2% glucose (YPD) with 0, 25, 50, 75, 100, or 125 μg/mL poacic acid or a DMSO control at 25° C. for 16 h until the early log phase. The maximum concentration of the drug (125 μg/mL) was determined based on the growth inhibition rates (10%). Cell fixation, staining, and observation were performed (n=5) as described previously (Ohya et al. 2005). Images of cell shape, actin, and nuclear DNA were analyzed using the image processing software CalMorph (version 1.2), which extracted a total of 501 morphological quantitative values from at least 200 individual cells in each experiment (Ohya et al. 2005). Images were processed using Photoshop CS2 (Adobe Systems) for illustrative purposes.\nTo assess the morphological similarity between the cells treated with poacic acid and nonessential deletion mutants or cells treated with other cell wall-affecting drugs, their morphological profiles were compared as described previously (Ohnuki et al. 2010). To identify functional gene clusters, the most significant similar mutants (43 genes, P<0.01 after Bonferroni correction, t test) were selected as a query for GO term analysis (GO term finder in the Saccharomyces genome database).\nTo extract independent and characteristic features of morphology induced by poacic acid, a two-step principal component analysis was performed as described previously (Ohnuki et al. 2012). To compare phenotypic noise in the yeast population (poacic acid vs. DMSO), the noise score was calculated as described previously (Yvert et al. 2013)."}, "S. sclerotiorum": {"tested_on": "S. sclerotiorum", "experiment": "Inhibition of S. sclerotiorum in planta on detached soybean leaves", "format": "in vivo, Sclerotinia sclerotiorum on soybean (Williams 82)", "conditions": "single aerosol treatment 500 μg/mL before inoculation, up to 120 h postinoculation", "procedure": "(§1) To test inhibition in liquid culture, a dose curve of 0, 125, 250, and 500 μg/mL poacic acid in 100 mL potato dextrose broth (n=3) was used. Cultures of S. sclerotiorum strain 1980 were inoculated with 100 μL homogenized mycelia and grown at 25° C. for 48 h. The mycelia in the liquid media were dried and weighed. The growth inhibition of poacic acid on solid agar cultures (potato dextrose agar) was assessed by generating replicate plates (n=3) containing 0, 125, 250, and 500 μg/mL poacic acid. Plates were inoculated with an actively growing plug of S. sclerotiorum and grown at 25° C. The mycelial radial growth after 48 h was measured Inhibition of S. sclerotiorum in planta was tested by inoculating detached soybean leaves of the commercial variety Williams 82 with an agar plug of actively growing S. sclerotiorum mycelia. Leaves were treated one time before inoculation with either an aerosol spray of water with DMSO (control) or a 500 μg/mL solution of poacic acid. Leaves were incubated in a moist environment, and lesion development was monitored up to 120 h postinoculation. […] The growth inhibition of poacic acid was assessed at 0, 500, 1,000, and 1,500 μg/mL in replicate plates (n=3). […] Colony diameter was monitored for each treatment in a time-course experiment. […]"}, "Saccharomyces cerevisiae": {"tested_on": "Saccharomyces cerevisiae", "experiment": "Growth inhibition of S. cerevisiae control strain by diferulates", "format": "cell-based", "conditions": "for bioactivity against S. cerevisiae: 1 mg/mL", "procedure": "The diferulate compounds tested were synthesized as described by Lu et al. (2012) and resuspended in DMSO. Caspofungin, nikkomycin Z, and MMS were purchased from Sigma-Aldrich. Echinocandin B was a gift from O. Kondo (Chugai Pharmaceuticals, Tokyo, Japan). Micafungin was provided by Astellas Pharma. Diferulates were initially screened at a concentration of 1 mg/mL to determine bioactivity. Cells of Saccharomyces cerevisiae (MATα pdr1Δ::natMX pdr3Δ::KLURA3 snq2Δ::KI.LEU2 can1Δ::STE2pr-Sp_his5 lyp1Δ his3Δ1 leu2Δ0 ura3Δ0 met15Δ0), referred to as the control strain, were grown in 200-μL cultures at 30° C. in YPD with a drug or DMSO control. Plates were read on a TECAN M1000 over a 48-h growth period. The specific growth rate was calculated using GCAT analysis software (https://gcat3-pub.glbrc.org/) (Sato et al. 2014). When presented, IC50 values for growth rate inhibition were calculated from triplicate eight-point dose curves and SigmaPlot 12.0. When presented, error bars are means±SEs of at least three replicates."}, "P. sojae (field isolate)": {"tested_on": "P. sojae (field isolate)", "experiment": "Colony growth of P. sojae on plates", "format": "cell-based, Phytophthora sojae", "conditions": "0, 500, 1,000, 1,500 μg/mL, 7 d, P<0.01", "procedure": "as §1"}, "[2]": {"experiment": "Cell-free glucan staining (binding to purified yeast glucan)", "conditions": "0.125% (wt/vol) poacic acid, fluorescence", "procedure": "β-1,3-Glucan was stained with aniline blue (016-21302; Wako Chemicals) as described previously (Watanabe et al. 2001) with slight modification. Briefly, log-phase yeast cells (his3Δ) were cultured in YPD with poacic acid (125 μg/mL) at 25° C. Then, cells were collected at 0, 2, 4, and 6 h after treatment and stained with aniline blue without fixation as described previously (Okada et al. 2015). Cells mounted on a glass slide were exposed to UV for 30 s to bleach out poacic acid fluorescence before acquiring images. Staining of chitin or mannoproteins with calcofluor white (F3543; Sigma-Aldrich) or Alexa594-ConA (C11253; Life Technologies), respectively, was performed as described previously (Okada et al. 2015). For cell-free glucan staining, yeast glucan (G0331; Tokyo Chemical Industry) was suspended to 0.125% (wt/vol) poacic acid and observed under a fluorescent microscope using a regular DAPI filter set (Carl Zeiss)."}, "[3]": {"tested_on": "Alternaria solani (field isolate)", "experiment": "Colony growth of A. solani on plates", "format": "cell-based", "conditions": "0, 500, 1,000, 1,500 μg/mL, dose-dependent", "procedure": "as §1"}}, "note": "“And” between values parts separate entries of the source, which are not always exact repeats. Equal values may be shown once."}
{"smiles": "COc1cc(/C=C/c2cc(/C=C/C(=O)O)cc(OC)c2O)ccc1O", "note": "[poacic acid, (E)-4-Hydroxy-3-{2-[(E)-4-hydroxy-3-methoxystyryl]}-5-methoxycinnamic acid]", "values": [{"measurement": "bud neck size", "setting": "[1]; 0-125 μg/mL, 16 h", "result": "dose-dependent increase in bud neck size"}, {"measurement": "heterogeneity of cell morphology", "setting": "[1]; 0-125 μg/mL, 16 h", "result": "heterogeneous morphologies"}, {"measurement": "inhibition at 125 µg/mL", "setting": "[1]; Saccharomyces cerevisiae, read-out: growth inhibition rates", "result": 10, "unit": "%"}, {"measurement": "morphological correlation with other cell wall-affecting compounds", "setting": "[1]; vs micafungin, echinocandin B and other cell wall-affecting compounds", "result": "lower morphological correlations"}, {"measurement": "lesion development on detached soybean leaves", "setting": "S. sclerotiorum", "result": "markedly reduced lesion development"}, {"measurement": "bioactivity against S. cerevisiae", "setting": "Saccharomyces cerevisiae", "result": "greatest antifungal activity"}, {"measurement": "bioactivity against S. cerevisiae", "setting": "Saccharomyces cerevisiae; listed as Poacic acid", "result": "highest bioactivity"}, {"measurement": "IC50", "setting": "Saccharomyces cerevisiae; Saccharomyces cerevisiae, read-out: IC50 (growth rate inhibition)", "result": "111 µg/mL and 324 µM"}, {"measurement": "colony growth", "setting": "P. sojae (field isolate)", "result": "significantly reduces colony growth"}, {"measurement": "binding to purified yeast glucan", "setting": "[2]", "result": "directly binds β-1,3-glucan"}, {"measurement": "colony growth on plates", "setting": "[3]", "result": "significantly (P<0.01) inhibited"}]}
